# Target: Beta-1 adrenergic receptor (Homo sapiens, UniProt P08588)
# Test: DRUGMATRIX: Adrenergic beta1 radioligand binding (ligand: [125I] Cyanopindolol)
# Type: cell membranes, CHO-K1, Membrane
# Conditions: cho-k1; Not Active = under 50% inhibition at 10 µM
# Sequence of Beta-1 adrenergic receptor (P08588 whole entry): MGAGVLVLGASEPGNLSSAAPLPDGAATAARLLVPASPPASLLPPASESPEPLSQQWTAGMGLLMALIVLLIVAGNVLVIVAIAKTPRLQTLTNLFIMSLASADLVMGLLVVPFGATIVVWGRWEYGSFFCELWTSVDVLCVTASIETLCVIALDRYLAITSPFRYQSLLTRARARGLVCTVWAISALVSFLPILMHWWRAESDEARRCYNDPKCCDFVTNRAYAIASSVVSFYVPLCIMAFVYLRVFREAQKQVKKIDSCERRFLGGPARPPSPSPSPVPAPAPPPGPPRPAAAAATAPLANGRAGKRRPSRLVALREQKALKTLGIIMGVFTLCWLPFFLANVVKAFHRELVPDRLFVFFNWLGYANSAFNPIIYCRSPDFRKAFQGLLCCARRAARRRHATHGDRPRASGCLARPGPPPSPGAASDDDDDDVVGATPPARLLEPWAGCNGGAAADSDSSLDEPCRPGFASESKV
row,SMILES,IC50
1,CC(=O)Nc1cccc(O)c1 [METACETAMOL],Not Active
2,Cc1ncc([N+](=O)[O-])n1CCO [METRONIDAZOLE],Not Active
3,CC(C)(C(=O)c1cccnc1)c1cccnc1 [METYRAPONE],Not Active
4,Oc1ccc(OCc2ccccc2)cc1 [MONOBENZONE],Not Active
5,CC(C)(Oc1ccc(C2CCCc3ccccc32)cc1)C(=O)O (stereo not drawn) [NAFENOPIN],Not Active
6,COc1ccc2cc([C@H](C)C(=O)O)ccc2c1 [NAPROXEN],Not Active
7,CC(C)[C@H]1CC[C@H](C(=O)N[C@H](Cc2ccccc2)C(=O)O)CC1 [NATEGLINIDE],Not Active
8,CCN[C@@H]1C[C@H](N)[C@@H](O[C@H]2OC(CN)=CC[C@H]2N)[C@H](O)[C@H]1O[C@H]1OC[C@](C)(O)[C@H](NC)[C@H]1O [NETILMICIN],Not Active
9,COC(=O)C1=C(C)NC(C)=C(C(=O)OCC(C)C)C1c1ccccc1[N+](=O)[O-] (stereo not drawn) [NISOLDIPINE],Not Active
10,CCOC(=O)C1=C(C)NC(C)=C(C(=O)OC)C1c1cccc([N+](=O)[O-])c1 (stereo not drawn) [NITRENDIPINE],Not Active
11,C#C[C@]1(OC(C)=O)CC[C@H]2[C@@H]3CCC4=CC(=O)CC[C@@H]4[C@H]3CC[C@@]21C [NORETHINDRONE ACETATE],Not Active

# Test system: not listed separately
# Test: DRUGMATRIX: ATPase, Na+/K+ enzyme inhibition (substrate: ATP)
# Type: tissue-based, Sus scrofa, Heart
# Conditions: Not Active = under 50% inhibition at 10 µM
SMILES,IC50,Ki
CC(=O)Nc1cccc(O)c1 [METACETAMOL],Not Active,Not Active
Cc1ncc([N+](=O)[O-])n1CCO [METRONIDAZOLE],Not Active,Not Active
CC(C)(C(=O)c1cccnc1)c1cccnc1 [METYRAPONE],Not Active,Not Active
Oc1ccc(OCc2ccccc2)cc1 [MONOBENZONE],Not Active,Not Active
CC(C)(Oc1ccc(C2CCCc3ccccc32)cc1)C(=O)O (stereo not drawn) [NAFENOPIN],Not Active,Not Active
COc1ccc2cc([C@H](C)C(=O)O)ccc2c1 [NAPROXEN],Not Active,Not Active
CC(C)[C@H]1CC[C@H](C(=O)N[C@H](Cc2ccccc2)C(=O)O)CC1 [NATEGLINIDE],Not Active,Not Active
CCN[C@@H]1C[C@H](N)[C@@H](O[C@H]2OC(CN)=CC[C@H]2N)[C@H](O)[C@H]1O[C@H]1OC[C@](C)(O)[C@H](NC)[C@H]1O [NETILMICIN],Not Active,Not Active
COC(=O)C1=C(C)NC(C)=C(C(=O)OCC(C)C)C1c1ccccc1[N+](=O)[O-] (stereo not drawn) [NISOLDIPINE],Not Active,Not Active
CCOC(=O)C1=C(C)NC(C)=C(C(=O)OC)C1c1cccc([N+](=O)[O-])c1 (stereo not drawn) [NITRENDIPINE],Not Active,Not Active
C#C[C@]1(OC(C)=O)CC[C@H]2[C@@H]3CCC4=CC(=O)CC[C@@H]4[C@H]3CC[C@@]21C [NORETHINDRONE ACETATE],Not Active,Not Active

# Target: 5-hydroxytryptamine receptor 4 (Cavia porcellus, UniProt O70528); further: in other assays of this panel Not Active means under 50% inhibition at 10 µM
# Sequence (O70528 whole entry): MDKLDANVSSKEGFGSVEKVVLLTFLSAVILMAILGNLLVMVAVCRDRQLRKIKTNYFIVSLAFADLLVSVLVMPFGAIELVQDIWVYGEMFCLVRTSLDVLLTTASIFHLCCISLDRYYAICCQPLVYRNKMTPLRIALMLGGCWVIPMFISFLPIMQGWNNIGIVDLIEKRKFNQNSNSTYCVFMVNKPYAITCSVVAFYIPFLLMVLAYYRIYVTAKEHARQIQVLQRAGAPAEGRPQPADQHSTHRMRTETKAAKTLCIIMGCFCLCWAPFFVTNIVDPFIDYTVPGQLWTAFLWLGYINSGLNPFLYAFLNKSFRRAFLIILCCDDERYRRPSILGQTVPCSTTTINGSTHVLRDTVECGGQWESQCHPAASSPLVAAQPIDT
# Type: cell membranes, Dunkin-Hartley, Striatum, Membrane
# Conditions: not given
row,SMILES,IC50
1,CC(=O)Nc1cccc(O)c1 [METACETAMOL],Not Active
2,Cc1ncc([N+](=O)[O-])n1CCO [METRONIDAZOLE],Not Active
3,CC(C)(C(=O)c1cccnc1)c1cccnc1 [METYRAPONE],Not Active
4,Oc1ccc(OCc2ccccc2)cc1 [MONOBENZONE],Not Active
5,CC(C)(Oc1ccc(C2CCCc3ccccc32)cc1)C(=O)O (stereo not drawn) [NAFENOPIN],Not Active
6,COc1ccc2cc([C@H](C)C(=O)O)ccc2c1 [NAPROXEN],Not Active
7,CC(C)[C@H]1CC[C@H](C(=O)N[C@H](Cc2ccccc2)C(=O)O)CC1 [NATEGLINIDE],Not Active
8,CCN[C@@H]1C[C@H](N)[C@@H](O[C@H]2OC(CN)=CC[C@H]2N)[C@H](O)[C@H]1O[C@H]1OC[C@](C)(O)[C@H](NC)[C@H]1O [NETILMICIN],Not Active
9,COC(=O)C1=C(C)NC(C)=C(C(=O)OCC(C)C)C1c1ccccc1[N+](=O)[O-] (stereo not drawn) [NISOLDIPINE],Not Active
10,CCOC(=O)C1=C(C)NC(C)=C(C(=O)OC)C1c1cccc([N+](=O)[O-])c1 (stereo not drawn) [NITRENDIPINE],Not Active
11,C#C[C@]1(OC(C)=O)CC[C@H]2[C@@H]3CCC4=CC(=O)CC[C@@H]4[C@H]3CC[C@@]21C [NORETHINDRONE ACETATE],Not Active

# Target: Melanocortin receptor 5 (Homo sapiens, UniProt P33032); further: in other assays of this panel Not Active means under 50% inhibition at 10 µM
# Sequence (P33032 whole entry): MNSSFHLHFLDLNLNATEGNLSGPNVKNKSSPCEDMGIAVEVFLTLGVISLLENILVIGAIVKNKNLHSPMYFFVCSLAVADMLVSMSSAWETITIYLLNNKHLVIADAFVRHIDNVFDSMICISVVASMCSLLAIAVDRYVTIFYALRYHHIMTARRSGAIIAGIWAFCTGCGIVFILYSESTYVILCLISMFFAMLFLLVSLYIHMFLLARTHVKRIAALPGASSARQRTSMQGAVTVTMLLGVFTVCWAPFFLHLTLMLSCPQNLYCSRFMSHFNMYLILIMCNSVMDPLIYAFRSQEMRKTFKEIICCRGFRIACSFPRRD
# Type: cell membranes, Membrane
# Conditions: hek293
row,SMILES,IC50
1,CC(=O)Nc1cccc(O)c1 [METACETAMOL],Not Active
2,Cc1ncc([N+](=O)[O-])n1CCO [METRONIDAZOLE],Not Active
3,CC(C)(C(=O)c1cccnc1)c1cccnc1 [METYRAPONE],Not Active
4,Oc1ccc(OCc2ccccc2)cc1 [MONOBENZONE],Not Active
5,CC(C)(Oc1ccc(C2CCCc3ccccc32)cc1)C(=O)O (stereo not drawn) [NAFENOPIN],Not Active
6,COc1ccc2cc([C@H](C)C(=O)O)ccc2c1 [NAPROXEN],Not Active
7,CC(C)[C@H]1CC[C@H](C(=O)N[C@H](Cc2ccccc2)C(=O)O)CC1 [NATEGLINIDE],Not Active
8,CCN[C@@H]1C[C@H](N)[C@@H](O[C@H]2OC(CN)=CC[C@H]2N)[C@H](O)[C@H]1O[C@H]1OC[C@](C)(O)[C@H](NC)[C@H]1O [NETILMICIN],Not Active
9,COC(=O)C1=C(C)NC(C)=C(C(=O)OCC(C)C)C1c1ccccc1[N+](=O)[O-] (stereo not drawn) [NISOLDIPINE],Not Active
10,CCOC(=O)C1=C(C)NC(C)=C(C(=O)OC)C1c1cccc([N+](=O)[O-])c1 (stereo not drawn) [NITRENDIPINE],Not Active
11,C#C[C@]1(OC(C)=O)CC[C@H]2[C@@H]3CCC4=CC(=O)CC[C@@H]4[C@H]3CC[C@@]21C [NORETHINDRONE ACETATE],Not Active

# Target: T1, Neuropeptide Y receptor type 1 (Homo sapiens, UniProt P25929); further: in other assays of this panel Not Active means under 50% inhibition at 10 µM
# T1 sequence (P25929 whole entry): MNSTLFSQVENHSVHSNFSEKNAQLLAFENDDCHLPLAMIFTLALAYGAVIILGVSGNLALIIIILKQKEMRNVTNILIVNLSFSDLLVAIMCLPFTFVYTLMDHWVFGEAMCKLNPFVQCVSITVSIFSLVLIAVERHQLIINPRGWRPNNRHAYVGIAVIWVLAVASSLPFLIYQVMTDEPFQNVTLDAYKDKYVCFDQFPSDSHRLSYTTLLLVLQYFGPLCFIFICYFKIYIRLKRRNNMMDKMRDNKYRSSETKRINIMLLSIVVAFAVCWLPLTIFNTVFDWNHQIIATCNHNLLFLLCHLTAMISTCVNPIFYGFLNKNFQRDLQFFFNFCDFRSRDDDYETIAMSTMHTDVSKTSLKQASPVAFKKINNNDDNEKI
# Type: cell membranes, Membrane
# Conditions: sk-n-mc
row,SMILES,IC50
1,CC(=O)Nc1cccc(O)c1 [METACETAMOL],Not Active
2,Cc1ncc([N+](=O)[O-])n1CCO [METRONIDAZOLE],Not Active
3,CC(C)(C(=O)c1cccnc1)c1cccnc1 [METYRAPONE],Not Active
4,Oc1ccc(OCc2ccccc2)cc1 [MONOBENZONE],Not Active
5,CC(C)(Oc1ccc(C2CCCc3ccccc32)cc1)C(=O)O (stereo not drawn) [NAFENOPIN],Not Active
6,COc1ccc2cc([C@H](C)C(=O)O)ccc2c1 [NAPROXEN],Not Active
7,CC(C)[C@H]1CC[C@H](C(=O)N[C@H](Cc2ccccc2)C(=O)O)CC1 [NATEGLINIDE],Not Active
8,CCN[C@@H]1C[C@H](N)[C@@H](O[C@H]2OC(CN)=CC[C@H]2N)[C@H](O)[C@H]1O[C@H]1OC[C@](C)(O)[C@H](NC)[C@H]1O [NETILMICIN],Not Active
9,COC(=O)C1=C(C)NC(C)=C(C(=O)OCC(C)C)C1c1ccccc1[N+](=O)[O-] (stereo not drawn) [NISOLDIPINE],Not Active
10,CCOC(=O)C1=C(C)NC(C)=C(C(=O)OC)C1c1cccc([N+](=O)[O-])c1 (stereo not drawn) [NITRENDIPINE],Not Active
11,C#C[C@]1(OC(C)=O)CC[C@H]2[C@@H]3CCC4=CC(=O)CC[C@@H]4[C@H]3CC[C@@]21C [NORETHINDRONE ACETATE],Not Active

# Target: Tyrosine-protein kinase Lck (Homo sapiens, UniProt P06239)
# Sequence (P06239 whole entry): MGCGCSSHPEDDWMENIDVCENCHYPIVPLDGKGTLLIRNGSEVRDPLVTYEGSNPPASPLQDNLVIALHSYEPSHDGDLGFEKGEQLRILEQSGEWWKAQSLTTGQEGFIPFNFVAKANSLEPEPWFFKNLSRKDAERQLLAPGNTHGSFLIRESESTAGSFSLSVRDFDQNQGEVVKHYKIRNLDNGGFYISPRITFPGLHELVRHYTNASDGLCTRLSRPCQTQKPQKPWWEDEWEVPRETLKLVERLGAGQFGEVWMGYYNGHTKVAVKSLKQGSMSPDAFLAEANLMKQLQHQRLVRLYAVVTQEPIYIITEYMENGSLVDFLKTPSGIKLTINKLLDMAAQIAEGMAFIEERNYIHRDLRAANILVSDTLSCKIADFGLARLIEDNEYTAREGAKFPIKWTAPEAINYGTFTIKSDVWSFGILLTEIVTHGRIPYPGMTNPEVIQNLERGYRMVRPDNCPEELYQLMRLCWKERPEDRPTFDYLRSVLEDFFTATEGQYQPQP
# Test: DRUGMATRIX: Protein Tyrosine Kinase, LCK enzyme inhibition (substrate: Poly(Glu:Tyr))
# Type: cell-based, Insect cells
# Conditions: insect cells; Not Active = under 50% inhibition at 10 µM
row,SMILES,IC50
1,CC(=O)Nc1cccc(O)c1 [METACETAMOL],Not Active
2,Cc1ncc([N+](=O)[O-])n1CCO [METRONIDAZOLE],Not Active
3,CC(C)(C(=O)c1cccnc1)c1cccnc1 [METYRAPONE],Not Active
4,Oc1ccc(OCc2ccccc2)cc1 [MONOBENZONE],Not Active
5,CC(C)(Oc1ccc(C2CCCc3ccccc32)cc1)C(=O)O (stereo not drawn) [NAFENOPIN],Not Active
6,COc1ccc2cc([C@H](C)C(=O)O)ccc2c1 [NAPROXEN],Not Active
7,CC(C)[C@H]1CC[C@H](C(=O)N[C@H](Cc2ccccc2)C(=O)O)CC1 [NATEGLINIDE],Not Active
8,CCN[C@@H]1C[C@H](N)[C@@H](O[C@H]2OC(CN)=CC[C@H]2N)[C@H](O)[C@H]1O[C@H]1OC[C@](C)(O)[C@H](NC)[C@H]1O [NETILMICIN],Not Active
9,COC(=O)C1=C(C)NC(C)=C(C(=O)OCC(C)C)C1c1ccccc1[N+](=O)[O-] (stereo not drawn) [NISOLDIPINE],Not Active
10,CCOC(=O)C1=C(C)NC(C)=C(C(=O)OC)C1c1cccc([N+](=O)[O-])c1 (stereo not drawn) [NITRENDIPINE],Not Active
11,C#C[C@]1(OC(C)=O)CC[C@H]2[C@@H]3CCC4=CC(=O)CC[C@@H]4[C@H]3CC[C@@]21C [NORETHINDRONE ACETATE],Not Active

# Target: T2, Adenosine receptor A1 (Homo sapiens, UniProt P30542);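 further: radioligand binding assay at the adenosine A1 receptor, with DPCPX serving as the labelled ligand; in other assays of this panel Not Active means under 50% inhibition at 10 µM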
# T2 sequence (P30542 whole entry): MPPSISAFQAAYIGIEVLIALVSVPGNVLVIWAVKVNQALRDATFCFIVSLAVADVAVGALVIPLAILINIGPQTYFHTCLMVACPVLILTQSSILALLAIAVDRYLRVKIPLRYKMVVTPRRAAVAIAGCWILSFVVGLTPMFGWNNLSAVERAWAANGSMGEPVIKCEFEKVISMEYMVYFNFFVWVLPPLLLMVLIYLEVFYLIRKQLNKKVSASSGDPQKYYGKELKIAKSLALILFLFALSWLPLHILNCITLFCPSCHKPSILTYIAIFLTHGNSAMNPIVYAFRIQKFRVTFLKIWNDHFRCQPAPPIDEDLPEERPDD
# Type: cell membranes, Membrane
# Conditions: cho
row,SMILES,IC50
1,CC(=O)Nc1cccc(O)c1 [METACETAMOL],Not Active
2,Cc1ncc([N+](=O)[O-])n1CCO [METRONIDAZOLE],Not Active
3,CC(C)(C(=O)c1cccnc1)c1cccnc1 [METYRAPONE],Not Active
4,Oc1ccc(OCc2ccccc2)cc1 [MONOBENZONE],Not Active
5,CC(C)(Oc1ccc(C2CCCc3ccccc32)cc1)C(=O)O (stereo not drawn) [NAFENOPIN],Not Active
6,COc1ccc2cc([C@H](C)C(=O)O)ccc2c1 [NAPROXEN],Not Active
7,CC(C)[C@H]1CC[C@H](C(=O)N[C@H](Cc2ccccc2)C(=O)O)CC1 [NATEGLINIDE],Not Active
8,CCN[C@@H]1C[C@H](N)[C@@H](O[C@H]2OC(CN)=CC[C@H]2N)[C@H](O)[C@H]1O[C@H]1OC[C@](C)(O)[C@H](NC)[C@H]1O [NETILMICIN],Not Active
9,COC(=O)C1=C(C)NC(C)=C(C(=O)OCC(C)C)C1c1ccccc1[N+](=O)[O-] (stereo not drawn) [NISOLDIPINE],Not Active
10,CCOC(=O)C1=C(C)NC(C)=C(C(=O)OC)C1c1cccc([N+](=O)[O-])c1 (stereo not drawn) [NITRENDIPINE],Not Active
11,C#C[C@]1(OC(C)=O)CC[C@H]2[C@@H]3CCC4=CC(=O)CC[C@@H]4[C@H]3CC[C@@]21C [NORETHINDRONE ACETATE],Not Active
